Among the data in PubChem BioAssay (NCI) are GI50 and TGI values, retold here.

What all share (test): growth of human tumour cells (NCI), 48 h
In experiment [1] the test system is DU-145 prostate.
Experiment [2] has as its system U251 CNS.
Experiment [3] concerns SF-268 CNS.
Experiment [4] deals with SK-MEL-28 melanoma.
Experiment [5] has as its system SK-OV-3 ovarian.
Experiment [6] deals with CAKI-1 renal.
In experiment [7] the test system is RPMI-8226 leukemia.
Experiment [8] concerns HCT-15 colon.

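Method: 48-hour compound exposure of cells in 96-well plates, five concentrations, linear interpolation of endpoints. GI50 = concentration required for 50% inhibition of growth. TGI: total growth inhibition.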

Regarding `OCC1OC(n2cnc3c(NCc4ccco4)ncnc32)C(O)C1O` (stereo not drawn), the GI50 is 1.27 µM in experiment [1]; 4.43 µM in experiment [2]; 4.28 µM in experiment [3]; 8.72 µM in experiment [4]; 1.6 µM in experiment [5]; 0.369 µM in experiment [6]. The GI50 in experiment [7] is 3 µM; in experiment [8], 0.524 µM. The TGI is 4.14 µM in experiment [1]; > 100 µM in experiment [2]; > 100 µM in experiment [3]; > 100 µM in experiment [4]; 14.2 µM in experiment [5]; 4.33 µM in experiment [6]. The TGI in experiment [7] was 21.3 µM; in experiment [8], > 28.1 µM.

As for `C[C@@H](Oc1cc(-c2cnn(C3CCNCC3)c2)cnc1N)c1c(Cl)cc(F)cc1Cl`, the GI50 in experiment [1] is 3.25 µM; in experiment [2], 1.93 µM; in experiment [3], 3.05 µM; in experiment [4] it was 1.56 µM; in experiment [5], 3.26 µM; in experiment [6], 3.17 µM. The GI50 was 2.41 µM in experiment [7] and 2.7 µM in experiment [8]. The TGI in experiment [1] was 13.6 µM; in experiment [2] it was 7.65 µM; in experiment [3], 12.1 µM; in experiment [4] it was 3.17 µM; in experiment [5], 10.8 µM; in experiment [6], 12.6 µM. Further, the results for the TGI in experiment [7] and in experiment [8] were 8.6 µM and 12.5 µM, respectively.

With `COc1cc(NCCC2CCCCN2)c2ncccc2c1OC` (stereo not drawn), the GI50 was 13.1 µM in experiment [1]; 4.12 µM in experiment [2]; 14.2 µM in experiment [3]; 11.7 µM in experiment [4]; 20.3 µM in experiment [5]; 9.56 µM in experiment [6]. Also, the GI50 in experiment [7] is 10.1 µM; in experiment [8] it was 21.2 µM. The TGI is 26.9 µM in experiment [1]; 16 µM in experiment [2]; 41.8 µM in experiment [3]; 24.8 µM in experiment [4]; 38.9 µM in experiment [5]; 30.2 µM in experiment [6]. For the same compound, the TGI in experiment [7] amounted to 50.8 µM; in experiment [8], 85.5 µM.

Turning to `O=c1[nH]c2ccccc2n1C1CCN(CCOc2ccccc2)CC1`, the GI50 was 15.8 µM in experiment [1]; 20.5 µM in experiment [2]; 39.1 µM in experiment [3]; 47.9 µM in experiment [4]; 42.9 µM in experiment [5]; 14.9 µM in experiment [6]. Further, the GI50 in experiment [7] is 9.28 µM; in experiment [8], 20.6 µM. For the same compound, the TGI in experiment [1] was > 100 µM; in experiment [2], > 100 µM; in experiment [3], > 100 µM; in experiment [4] it was > 100 µM; in experiment [5], > 100 µM; in experiment [6], 52.7 µM. The TGI in experiment [7] and in experiment [8] was > 100 µM throughout.

As for `Cc1ccc(NC2=CC(=O)C(=O)c3ccccc32)cc1`, the GI50 in experiment [1] was 1.53 µM; in experiment [2] it was 2.01 µM; in experiment [3], 2.78 µM; in experiment [4], 1.84 µM; in experiment [5], 11.3 µM; in experiment [6], 3.14 µM. Moreover, the values for the GI50 in experiment [7] and in experiment [8] were 3.55 µM and 1.49 µM, respectively. Also, the TGI in experiment [1] was 2.91 µM; in experiment [2] it was 5.71 µM; in experiment [3] it was 12.1 µM; in experiment [4], 3.58 µM; in experiment [5], 23.5 µM; in experiment [6] it was 16.5 µM. Besides, the TGI in experiment [7] was > 100 µM; in experiment [8], 3.91 µM.

As to `CCN(CC)CCCC(C)Nc1ccnc(/C=C/c2ccc(Cl)cc2)c1` (stereo not drawn), the TGI in experiment [1] is 17.6 µM; in experiment [2] it was 3.12 µM; in experiment [3], 8.6 µM; in experiment [4] it was 3.41 µM; in experiment [5] it was 10.7 µM; in experiment [6], 4.11 µM. For the same compound, the figures for the TGI in experiment [7] and in experiment [8] were 5.74 µM and 6.35 µM, respectively.

Regarding `CCOC(=O)c1cc2c(n1Cc1cc(OC)cc(OC)c1)-c1oncc1CC2`, the GI50 was 0.216 µM in experiment [1]; 0.262 µM in experiment [2]; 3.18 µM in experiment [3]; 0.25 µM in experiment [4]; 0.309 µM in experiment [5]; 0.102 µM in experiment [6]. The GI50 was 0.354 µM in experiment [7] and 0.13 µM in experiment [8]. The TGI in experiment [1] was 25.7 µM; in experiment [2] it was > 100 µM; in experiment [3] it was > 100 µM; in experiment [4], > 100 µM; in experiment [5] it was > 100 µM; in experiment [6] it was > 100 µM. Also, the TGI is > 35.4 µM in experiment [7] and > 100 µM in experiment [8].

Consider `COc1ccc(C(Nc2ccccn2)c2cc(C(C)(C)C)cc(C(C)(C)C)c2O)cc1` (stereo not drawn), for which the TGI in experiment [1], in experiment [2], in experiment [3], in experiment [4], in experiment [5] and in experiment [6] was > 100 µM throughout. In addition, the TGI in experiment [7] and in experiment [8] was > 100 µM in each case.

Regarding `c1ccc2c(c1)[nH]c1c3ccccc3sc21`, the TGI in experiment [1], in experiment [2], in experiment [3], in experiment [4], in experiment [5] and in experiment [6] was > 100 µM in each case. For the same compound, the TGI in experiment [7] and in experiment [8] was > 100 µM in each case.

For the compound `CCC(C(=O)[C@@H](C)[C@@H](O)[C@H](C)[C@@H]1O[C@@H]([C@@H](CC)C(=O)ONC(=O)c2ccccc2)CC[C@@H]1C)[C@H]1O[C@]2(C=CC(=O)[C@]3(CC[C@@](C)([C@H]4CC[C@](O)(CC)[C@H](C)O4)O3)O2)[C@H](C)C[C@@H]1C` (stereo partly drawn), the GI50 in experiment [1] is 0.511 µM; in experiment [2], 0.11 µM; in experiment [3] it was 0.977 µM; in experiment [4], 1.6 µM; in experiment [5], 2.79 µM; in experiment [6] it was 1.01 µM. Besides, the results for the GI50 in experiment [7] and in experiment [8] were 0.0838 µM and 0.349 µM, respectively. In addition, the TGI was determined as 1.98 µM in experiment [1]; 1.6 µM in experiment [2]; 3.11 µM in experiment [3]; 8.57 µM in experiment [4]; 10.1 µM in experiment [5]; 2.71 µM in experiment [6]. Also, the TGI came out at 2.3 µM in experiment [7] and 1.61 µM in experiment [8].

As to `O=C(O)c1cc(Cl)cc(Cc2cc(Cl)cc(C(=O)O)c2O)c1O`, the TGI in experiment [1], in experiment [2], in experiment [3], in experiment [4], in experiment [5] and in experiment [6] was > 100 µM in each case. The TGI in experiment [7] and in experiment [8] was > 100 µM throughout.

Regarding `COc1ccc(NC(=O)c2cccc(C3CCc4c(cc(OC)c(OC)c4OC)O3)c2)cc1` (stereo not drawn), the GI50 in experiment [1] is 2.93 µM; in experiment [2], 3.4 µM; in experiment [3], 5.13 µM; in experiment [4], 4.12 µM; in experiment [5], 3.54 µM; in experiment [6], 3.49 µM. For the same compound, the figures for the GI50 in experiment [7] and in experiment [8] were 1.36 µM and 1.96 µM, respectively. Moreover, the TGI in experiment [1], in experiment [2], in experiment [3], in experiment [4], in experiment [5] and in experiment [6] was > 100 µM in each case. In addition, the TGI in experiment [7] is 7.93 µM; in experiment [8] it was > 100 µM.

For the compound `Nc1nc(N)c(-c2ccc(Cl)c(Cl)c2)c(CP(Cl)(Cl)(Cl)Br)n1`, the GI50 in experiment [1] was 9.33 µM; in experiment [2], 4.8 µM; in experiment [3], 7.05 µM; in experiment [4], 20.6 µM; in experiment [5], 86.7 µM; in experiment [6], 14.7 µM. Besides, the GI50 was 17.3 µM in experiment [7] and 4.26 µM in experiment [8]. Besides, the TGI in experiment [1], in experiment [2], in experiment [3], in experiment [4], in experiment [5] and in experiment [6] was > 100 µM each time. Also, the TGI in experiment [7] and in experiment [8] was > 100 µM in each case.

For the compound `CCSCCCC(=O)O`, the TGI in experiment [1], in experiment [2], in experiment [3], in experiment [4], in experiment [5] and in experiment [6] was > 100 µM throughout. For the same compound, the TGI in experiment [7] and in experiment [8] was > 100 µM in each case.

With `Cc1nn(-c2ccccc2)c2nc(C)n(-c3ccc(Br)cc3)c(=O)c12`, the GI50 in experiment [1] was 1.44 µM; in experiment [2], 0.479 µM; in experiment [3] it was 2.33 µM; in experiment [4], 3.46 µM; in experiment [5], 1.28 µM; in experiment [6] it was 0.416 µM. Besides, the values for the GI50 in experiment [7] and in experiment [8] were 0.571 µM and 0.416 µM, respectively. The TGI in experiment [1], in experiment [2], in experiment [3], in experiment [4], in experiment [5] and in experiment [6] was > 100 µM throughout. For the same compound, the TGI was > 54.6 µM in experiment [7] and > 100 µM in experiment [8].

With `Oc1ccc(/C=N/NC(=S)Nc2cccnc2)nc1`, the TGI in experiment [1] was > 89.4 µM; in experiment [2], > 67 µM; in experiment [3] it was > 100 µM; in experiment [4], > 100 µM; in experiment [5] it was > 100 µM; in experiment [6], > 100 µM. Further, the TGI is 76.4 µM in experiment [7] and > 100 µM in experiment [8].
